The values below are quoted from earlier work in patent publication US3993756A, “Antilipemic agent containing a soybean oil fraction” (priority 1975, dated 1976).

The conditions of series [1]: in vivo.
For series [2], the system named is cholesterol level in blood serum. The settings on record: for effect on cholesterol level in blood serum: in vivo.

Turning to `CC[C@H](CC[C@@H](C)[C@H]1CC[C@H]2[C@@H]3CC=C4C[C@@H](O)CC[C@]4(C)[C@H]3CC[C@]12C)C(C)C` [β-sitosterol], the “absorption by the body” value in series [1] was “low absorption”. In addition, the “liver or kidney troubles” value in series [2] (20 to 30 g per day, long periods) is “inviting liver or kidney troubles”. In addition, the “effect on cholesterol level in blood serum” value in series [2] was “effective for lowering the cholesterol level in blood serum”.
As for `CC[C@H](/C=C/[C@@H](C)[C@H]1CC[C@H]2[C@@H]3CC=C4C[C@@H](O)CC[C@]4(C)[C@H]3CC[C@]12C)C(C)C` [stigmasterol], the “effect on cholesterol level in blood serum” value in series [2] is reported as “effective for lowering the cholesterol level in blood serum”.
